Data set [1] can be described thus: on-resin RCM stapling (Rink amide MBHA), 16 mol% Z-selective Ru catalyst 7 (Dipp), then TFA/TIS/H2O cleavage. The following applies: the molecule shown is the open-chain precursor, DCE, 40.0 °C.
Data set [2] can be described thus: on-resin RCM stapling (Rink amide MBHA), 16 mol% Ru catalyst 4 (nitro-Hoveyda/Grela), then TFA/TIS/H2O cleavage. As to conditions: the molecule shown is the open-chain precursor, DCE, 40.0 °C.
A short description of data set [3]: on-resin RCM stapling (Rink amide MBHA), 16 mol% Ru catalyst 5 (o-tolyl NHC Hoveyda type), then TFA/TIS/H2O cleavage. The following applies: the molecule shown is the open-chain precursor, DCE, 40.0 °C.
Data set [4] is described as follows: on-resin RCM stapling (Rink amide MBHA), 16 mol% Ru catalyst 3 (Hoveyda-Grubbs II), then TFA/TIS/H2O cleavage. As to conditions: the molecule shown is the open-chain precursor, DCE, 40.0 °C.
Data set [5] in a line: on-resin RCM stapling (Rink amide MBHA), 16 mol% Ru catalyst 2 (Grubbs II), then TFA/TIS/H2O cleavage. As to conditions: the molecule shown is the open-chain precursor, DCE, 40.0 °C.
The nature of data set [6]: on-resin RCM stapling (Rink amide MBHA), 16 mol% Z-selective Ru catalyst 6 (Mes), then TFA/TIS/H2O cleavage. The following applies: the molecule shown is the open-chain precursor, 33-membered ring, DCE, 40.0 °C.

Here are results for two substances from PMC4618480.

In the case of “Fmoc-Ile-Thr-Phe-S5-Asp-Leu-Leu-S5-Tyr-Tyr-Gly-Pro-NH-resin”, the ring closure, conversion by HPLC amounted to 75% in data set [1] (21-membered ring); 80% in data set [2] (21-membered ring); 70% in data set [3] (21-membered ring); 81% in data set [4] (21-membered ring); 90% in data set [5] (21-membered ring).
With “Fmoc-Val-Asn-R8-Lys-Lys-Ile-Leu-Gly-Lys-S5-Ile-Lys-Val-Val-Lys-NH-resin”, the ring closure, conversion by HPLC in data set [1] (33-membered ring) was 55%; in data set [2] (33-membered ring), 85%; in data set [3] (33-membered ring), 60%; in data set [6] it was 70%; in data set [4] (33-membered ring) it was 80%; in data set [5] (33-membered ring) it was 94%.
